Here are results for two compounds from US4234579A, “Penicillanic acid 1,1-dioxides as β-lactamase inhibitors” (priority 1979, dated 1980).

Read-outs that look alike come from different tables or passages of the source.

Holding throughout (test): Mode MIC of antibiotic and PA 1,1-Dioxide alone and in combination
Common to all, as to type: cell-based

The test system of one assay is Bacteroides fragilis. Conditions: 15 strains; for MIC: Bacteroides fragilis, 18 h, alone, read-out: Mode MIC alone. The text has this: (§1) As indicated hereinbefore, the compounds of formula I, wherein R^1 is hydrogen or an ester-forming residue readily hydrolyzable in vivo, are antibacterial agents of medium potency. […] The procedure which is followed is the one recommended by the International Collaborative Study on Antibiotic Sensitivity Testing (Ericcson and Sherris, Acta. Pathologica et Microbiologia Scandinav, Supp. 217, Section B: 64-68 [1971]), and employs brain heart infusion (BHI) agar and the inocula replicating device. Overnight growth tubes are diluted 100 fold for use as the standard inoculum (20,000-10,000 cells in approximately 0.002 ml. are placed on the agar surface; 20 ml. of BHI agar/dish). Twelve 2 fold dilutions of the test compound are employed, with initial concentration of the test drug being 200 mcg./ml. Single colonies are disregarded when reading plates after 18 hrs. at 37° C. The susceptibility (MIC) of the test organism is accepted as the lowest concentration of compound capable of producing complete inhibition of growth as judged by the naked eye.
(§2) The manner in which the said compounds of the formula I increase the effectiveness of a β-lactam antibiotic can be appreciated by reference to experiments in which the MIC of a given antibiotic alone, and a compound of the formula I wherein R^1 is hydrogen, alone, are measured. These MIC's are then compared with the MIC values obtained with a combination of the given antibiotic and the compound of the formula I wherein R^1 is hydrogen. […] The MIC values of combinations are measured using the method described by Barry and Sabath in "Manual of Clinical Microbiology", edited by Lenette, Spaulding and Truant, 2nd Edition, 1974, American Society for Microbiology.
(§3) From Table II, it can be seen that against 19 ampicillin-resistant strains of Staphylococcus aureus, the mode MIC of ampicillin, and of penicillanic acid 1,1-dioxide, is 200 mcg./ml. […] The other entries in Table II show enhancement of the antibacterial effectiveness of ampicillin against 26 ampicillin resistant strains of Haemophilus influenzae, 18 ampicillin resistant strains of Klebsiella pneumoniae, and 15 strains of the anerobe Bacteroides fragilis. Tables III, IV and V show enhancement of the antibacterial potency of benzylpenicillin (penicillin G) carbenicillin (α-carboxybenzylpenicillin) and cefazolin, respectively, against strains of S. aureus, H. influenzae, K. pneumoniae and Bacteroides fragilis.

Another assay deals with Haemophilus influenzae. Conditions: 25 strains; for MIC: Haemophilus influenzae, 18 h, alone, read-out: Mode MIC alone.
Description: as §1, §2, §3

Another assay concerns Klebsiella pneumoniae. To be noted: for MIC: Klebsiella pneumoniae, 18 h, alone, read-out: Mode MIC alone.
Description: as §1, §2, §3

The subject of the next assay is Staphylococcus aureus. To be noted: 20 strains; for MIC: Staphylococcus aureus, 18 h, alone, read-out: Mode MIC alone.
Description: as §1, §2, §3

The mark [1] stands for this setting: Table IV, carbenicillin + PA 1,1-Dioxide in combination.
The mark [2] stands for this setting: Table V, Cefazolin + PA 1,1-Dioxide in combination.

Turning to `CC1(C)S[C@@H]2[C@H](NC(=O)C(C(=O)O)c3ccccc3)C(=O)N2[C@H]1C(=O)O` (stereo partly drawn) [carbenicillin, α-carboxybenzylpenicillin, reference compound], the MIC with Bacteroides fragilis (Table IV) was 50 µg/mL; in the assay with Haemophilus influenzae (Table IV), 6.25 µg/mL; with Klebsiella pneumoniae (Table IV, 16 strains), above 400 µg/mL; in the assay on Staphylococcus aureus (Table IV) it was 12.5 µg/mL. Also, the Mode MIC's of carbenicillin and PA 1,1-Dioxide in combination is 3.12 µg/mL in the assay on Bacteroides fragilis (setting [1]); 0.39 µg/mL in the assay with Haemophilus influenzae (setting [1]); 50 µg/mL in the assay with Klebsiella pneumoniae (Table IV, 16 strains, carbenicillin + PA 1,1-Dioxide in combination); 6.25 µg/mL in the assay with Staphylococcus aureus (setting [1]).

In the case of `Cc1nnc(SCC2=C(C(=O)O)N3C(=O)[C@@H](NC(=O)Cn4cnnn4)[C@H]3SC2)s1` [Cefazolin, reference compound], the MIC came to 200 µg/mL with Bacteroides fragilis (Table V); 25 µg/mL with Haemophilus influenzae (Table V); 100 µg/mL in the assay on Klebsiella pneumoniae (Table V, 3 strains); 0.78 µg/mL in the assay with Staphylococcus aureus (Table V). Besides, the Mode MIC's of Cefazolin and PA 1,1-Dioxide in Combination came out at 6.25 µg/mL with Bacteroides fragilis (setting [2]); 3.12 µg/mL with Haemophilus influenzae (setting [2]); 6.25 µg/mL in the assay on Klebsiella pneumoniae (Table V, 3 strains, Cefazolin + PA 1,1-Dioxide in combination); 0.2 µg/mL in the assay on Staphylococcus aureus (setting [2]).
